Assay results as given in patent US20220265646A1, “PIEZO AGONISTS FOR PREVENTING OR REVERTING ABNORMAL AMYLOID DEPOSITION” (ITÄ-SUOMEN YLIOPISTO, priority 2019, published 2022).

Columns and labels:
Piezo1Rs = target: T1, Piezo1Rs (Homo sapiens, UniProt Q92508); assay: Calcium imaging of Yoda1-evoked Ca2+ transients in SV-40 immortalized human microglia cell line; format: cell-based; settings: control SV-40 cells, n=13
T1 construct: SV-40 immortalized human microglia cell line which endogenously express Piezo-1 and Piezo2Rs was used; endogenous in cells; host or cells: SV-40 immortalized human microglia cell line
Method: To study the calcium influx evoked by native Piezo1 Rs expressed in microglia cells the present inventors used short Yoda1 applications (2 s, 50 μM if not otherwise specified). For this purpose, human IPSO derived microglia cells and SV-40 (immortalized human microglia) cells were seeded on 7 mm cover slips 1 day prior to the imaging experiment. Cells were loaded with the calcium-sensitive fluorescent dye Fluo-4AM (5 μM) for 30 min at 37° C. Followed by wash-incubation for 15 min in Ab 20 μM, 50 μM GdCI and basic solution (BS) as a control at 37° C. The basic solution containing the following (BS, in mM): 2.5 KCl, 152 NaCl, 10 glucose, 2 CaCl2, and 10 HEPES at pH 7.4. Fluorescence was visualized using monochromatic light source (TILL Photonics GmbH) using Ex/Im 494/[…] and a CCD camera (SensiCam). […] To quantify the difference in the amplitude of calcium transients, the ratio values were normalized by subtracting a baseline and further divided by the amplitude of the calcium transient to the 2 sec application of the ionomycin. Data were pre-analyzed offline using the FEI offline analysis (TILL Photonics), and further analysis was automatized using MatLab. Quantitative data were expressed as means±SEM unless otherwise stated. […] Significance assessed with the ANOVA test or Mann-Whitney t test for non-parametric data. […]

[1] = target: T2, Piezo channels in red blood cells (Mus musculus, UniProt E2JF22); assay: Red blood cell (RBC) Ca2+ flux by flow cytometry; format: cell-based; settings: 10 uM Yoda1, 17-23 weeks of age
T2 construct: from tissue; host or cells: red blood cells from blood of 5xFAD transgenic mice and wild-type controls
Method: The blood samples (50-100 μl) were collected from 5xFAD mice at different ages (13-15 weeks, 15-17 weeks, 17-19 weeks, 19-21 weeks and 21-23 weeks of age) for analysis of RBC Ca2 flux. Shortly, the blood samples were collected in Eppendorf tubes with sodium citrate to prevent coagulation. Then the samples were filtered through 100 μm filters to remove possible contaminants and aggregates, followed by two times wash with PBS (5 mins, 300g, RT) to remove plasma. 50 μl of red blood cells were transferred to dean tube and resuspended in 200 μl PBS (250 μl total volume of cell suspension). 250 μl of Fluo4 stock solution was added and cells were incubated for 30 minutes at 37° C. in dark. […] The Ca2+ flux was recorded by CytoFlex at high 60 μl/min flow rate. Recording was started at 20 sec run after the flow rate is stabilized, After 20 sec recording (baseline fluorescence), the Yoda1 at final concentration 10 μM was applied, at 4 min 20 sec time point (4 minutes after Yoda1 is added) ionomycin at 10 μM final concentration is added as positive control and sample is continued running until 6 min were up. Mean fluorescence intensity was measured using gates at different time points—baseline (before application of Yoda1 10 μM), at 1 min, 2 min, 3 min, at 4 min of recording. […]
The samples were recorded for 6 minutes. […]

hIPSC-derived microglia = assay: Cytokine measurement (cytokine bead assay) in LPS-treated iPSC-derived microglia; format: cell-based, human; settings: Yoda1 20 μM (Y20), n=4 per group
Method: Cytokine measurement. The impact of Piezo1Rs effect on the capacity of the iPSC derived microglia to release cytokines was evaluated using cytokine bead assay (CBA, PD Pharmingen)). Shortly, prior to the experiment IPSCs were plated in 24-well plate at 70,000 cells/cm^2 and cultured for 48 hours. […] Next, media were collected, centrifuged to remove any cell debris, and the supernatant was frozen at −70° C. Cytokines were analyzed with cytometric bead array mouse inflammation kit (BD Biosciences) according to manufacturer's instructions.

T1 sequence (Q92508 whole entry): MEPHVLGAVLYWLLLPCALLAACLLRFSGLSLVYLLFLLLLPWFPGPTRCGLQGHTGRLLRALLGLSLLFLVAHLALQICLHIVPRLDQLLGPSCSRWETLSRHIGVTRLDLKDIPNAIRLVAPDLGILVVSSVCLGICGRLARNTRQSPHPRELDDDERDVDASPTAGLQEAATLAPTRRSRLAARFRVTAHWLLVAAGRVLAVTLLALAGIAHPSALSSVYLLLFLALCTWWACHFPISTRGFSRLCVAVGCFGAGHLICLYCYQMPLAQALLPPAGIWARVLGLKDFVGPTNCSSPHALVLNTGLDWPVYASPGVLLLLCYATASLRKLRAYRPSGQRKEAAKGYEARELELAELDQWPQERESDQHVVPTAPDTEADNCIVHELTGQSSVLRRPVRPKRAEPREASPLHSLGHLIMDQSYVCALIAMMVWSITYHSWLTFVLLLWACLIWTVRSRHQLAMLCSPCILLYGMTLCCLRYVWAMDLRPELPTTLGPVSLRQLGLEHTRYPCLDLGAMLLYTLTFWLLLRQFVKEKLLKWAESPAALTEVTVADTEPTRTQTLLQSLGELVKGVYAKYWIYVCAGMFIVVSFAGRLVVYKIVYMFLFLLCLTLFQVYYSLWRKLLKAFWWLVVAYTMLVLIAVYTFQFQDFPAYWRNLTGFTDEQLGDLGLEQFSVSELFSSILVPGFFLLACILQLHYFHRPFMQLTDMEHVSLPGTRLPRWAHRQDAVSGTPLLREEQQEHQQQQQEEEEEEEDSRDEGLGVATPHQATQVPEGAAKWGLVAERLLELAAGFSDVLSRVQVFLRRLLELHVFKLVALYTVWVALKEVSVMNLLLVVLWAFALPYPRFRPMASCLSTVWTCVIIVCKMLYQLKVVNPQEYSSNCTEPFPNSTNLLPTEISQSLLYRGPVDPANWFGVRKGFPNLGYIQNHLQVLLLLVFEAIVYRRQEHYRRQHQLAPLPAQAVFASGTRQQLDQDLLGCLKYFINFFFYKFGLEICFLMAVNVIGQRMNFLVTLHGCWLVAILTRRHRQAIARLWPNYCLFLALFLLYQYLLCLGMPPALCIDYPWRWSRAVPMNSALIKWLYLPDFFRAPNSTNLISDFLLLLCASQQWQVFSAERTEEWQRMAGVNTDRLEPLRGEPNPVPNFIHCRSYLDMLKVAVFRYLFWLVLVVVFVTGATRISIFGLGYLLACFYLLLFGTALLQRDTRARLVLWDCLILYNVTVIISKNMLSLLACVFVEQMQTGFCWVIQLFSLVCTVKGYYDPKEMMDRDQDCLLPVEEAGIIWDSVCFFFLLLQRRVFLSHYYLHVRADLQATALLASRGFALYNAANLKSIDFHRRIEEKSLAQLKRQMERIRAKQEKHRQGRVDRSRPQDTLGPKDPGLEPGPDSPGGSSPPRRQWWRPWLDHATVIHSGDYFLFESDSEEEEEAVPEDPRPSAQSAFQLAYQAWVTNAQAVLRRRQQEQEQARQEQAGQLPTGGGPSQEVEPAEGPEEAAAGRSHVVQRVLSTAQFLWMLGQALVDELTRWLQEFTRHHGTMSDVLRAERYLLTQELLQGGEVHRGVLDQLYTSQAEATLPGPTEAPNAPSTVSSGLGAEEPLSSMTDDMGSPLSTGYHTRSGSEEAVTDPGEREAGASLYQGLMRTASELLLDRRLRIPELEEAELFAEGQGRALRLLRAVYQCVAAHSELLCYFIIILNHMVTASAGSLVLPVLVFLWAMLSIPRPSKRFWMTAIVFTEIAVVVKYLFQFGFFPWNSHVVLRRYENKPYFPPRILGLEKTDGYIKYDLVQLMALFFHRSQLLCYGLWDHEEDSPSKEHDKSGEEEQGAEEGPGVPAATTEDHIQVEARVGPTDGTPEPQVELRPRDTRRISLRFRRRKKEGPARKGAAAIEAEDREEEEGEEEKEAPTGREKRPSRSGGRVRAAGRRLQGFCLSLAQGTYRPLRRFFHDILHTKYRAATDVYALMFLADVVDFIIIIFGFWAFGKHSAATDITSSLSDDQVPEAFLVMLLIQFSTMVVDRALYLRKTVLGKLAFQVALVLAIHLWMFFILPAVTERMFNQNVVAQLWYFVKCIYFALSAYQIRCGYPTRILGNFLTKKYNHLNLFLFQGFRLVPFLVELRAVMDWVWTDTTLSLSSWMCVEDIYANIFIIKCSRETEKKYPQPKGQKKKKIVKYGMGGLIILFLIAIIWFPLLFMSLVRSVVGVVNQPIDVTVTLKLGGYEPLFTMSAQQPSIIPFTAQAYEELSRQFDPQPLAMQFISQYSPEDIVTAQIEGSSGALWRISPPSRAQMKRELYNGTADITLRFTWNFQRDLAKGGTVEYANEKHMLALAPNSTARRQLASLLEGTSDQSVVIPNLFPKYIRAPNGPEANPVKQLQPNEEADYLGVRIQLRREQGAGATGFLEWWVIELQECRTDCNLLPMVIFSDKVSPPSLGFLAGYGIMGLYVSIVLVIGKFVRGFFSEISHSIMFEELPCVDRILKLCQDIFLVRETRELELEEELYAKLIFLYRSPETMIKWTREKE
T2 sequence (E2JF22 whole entry): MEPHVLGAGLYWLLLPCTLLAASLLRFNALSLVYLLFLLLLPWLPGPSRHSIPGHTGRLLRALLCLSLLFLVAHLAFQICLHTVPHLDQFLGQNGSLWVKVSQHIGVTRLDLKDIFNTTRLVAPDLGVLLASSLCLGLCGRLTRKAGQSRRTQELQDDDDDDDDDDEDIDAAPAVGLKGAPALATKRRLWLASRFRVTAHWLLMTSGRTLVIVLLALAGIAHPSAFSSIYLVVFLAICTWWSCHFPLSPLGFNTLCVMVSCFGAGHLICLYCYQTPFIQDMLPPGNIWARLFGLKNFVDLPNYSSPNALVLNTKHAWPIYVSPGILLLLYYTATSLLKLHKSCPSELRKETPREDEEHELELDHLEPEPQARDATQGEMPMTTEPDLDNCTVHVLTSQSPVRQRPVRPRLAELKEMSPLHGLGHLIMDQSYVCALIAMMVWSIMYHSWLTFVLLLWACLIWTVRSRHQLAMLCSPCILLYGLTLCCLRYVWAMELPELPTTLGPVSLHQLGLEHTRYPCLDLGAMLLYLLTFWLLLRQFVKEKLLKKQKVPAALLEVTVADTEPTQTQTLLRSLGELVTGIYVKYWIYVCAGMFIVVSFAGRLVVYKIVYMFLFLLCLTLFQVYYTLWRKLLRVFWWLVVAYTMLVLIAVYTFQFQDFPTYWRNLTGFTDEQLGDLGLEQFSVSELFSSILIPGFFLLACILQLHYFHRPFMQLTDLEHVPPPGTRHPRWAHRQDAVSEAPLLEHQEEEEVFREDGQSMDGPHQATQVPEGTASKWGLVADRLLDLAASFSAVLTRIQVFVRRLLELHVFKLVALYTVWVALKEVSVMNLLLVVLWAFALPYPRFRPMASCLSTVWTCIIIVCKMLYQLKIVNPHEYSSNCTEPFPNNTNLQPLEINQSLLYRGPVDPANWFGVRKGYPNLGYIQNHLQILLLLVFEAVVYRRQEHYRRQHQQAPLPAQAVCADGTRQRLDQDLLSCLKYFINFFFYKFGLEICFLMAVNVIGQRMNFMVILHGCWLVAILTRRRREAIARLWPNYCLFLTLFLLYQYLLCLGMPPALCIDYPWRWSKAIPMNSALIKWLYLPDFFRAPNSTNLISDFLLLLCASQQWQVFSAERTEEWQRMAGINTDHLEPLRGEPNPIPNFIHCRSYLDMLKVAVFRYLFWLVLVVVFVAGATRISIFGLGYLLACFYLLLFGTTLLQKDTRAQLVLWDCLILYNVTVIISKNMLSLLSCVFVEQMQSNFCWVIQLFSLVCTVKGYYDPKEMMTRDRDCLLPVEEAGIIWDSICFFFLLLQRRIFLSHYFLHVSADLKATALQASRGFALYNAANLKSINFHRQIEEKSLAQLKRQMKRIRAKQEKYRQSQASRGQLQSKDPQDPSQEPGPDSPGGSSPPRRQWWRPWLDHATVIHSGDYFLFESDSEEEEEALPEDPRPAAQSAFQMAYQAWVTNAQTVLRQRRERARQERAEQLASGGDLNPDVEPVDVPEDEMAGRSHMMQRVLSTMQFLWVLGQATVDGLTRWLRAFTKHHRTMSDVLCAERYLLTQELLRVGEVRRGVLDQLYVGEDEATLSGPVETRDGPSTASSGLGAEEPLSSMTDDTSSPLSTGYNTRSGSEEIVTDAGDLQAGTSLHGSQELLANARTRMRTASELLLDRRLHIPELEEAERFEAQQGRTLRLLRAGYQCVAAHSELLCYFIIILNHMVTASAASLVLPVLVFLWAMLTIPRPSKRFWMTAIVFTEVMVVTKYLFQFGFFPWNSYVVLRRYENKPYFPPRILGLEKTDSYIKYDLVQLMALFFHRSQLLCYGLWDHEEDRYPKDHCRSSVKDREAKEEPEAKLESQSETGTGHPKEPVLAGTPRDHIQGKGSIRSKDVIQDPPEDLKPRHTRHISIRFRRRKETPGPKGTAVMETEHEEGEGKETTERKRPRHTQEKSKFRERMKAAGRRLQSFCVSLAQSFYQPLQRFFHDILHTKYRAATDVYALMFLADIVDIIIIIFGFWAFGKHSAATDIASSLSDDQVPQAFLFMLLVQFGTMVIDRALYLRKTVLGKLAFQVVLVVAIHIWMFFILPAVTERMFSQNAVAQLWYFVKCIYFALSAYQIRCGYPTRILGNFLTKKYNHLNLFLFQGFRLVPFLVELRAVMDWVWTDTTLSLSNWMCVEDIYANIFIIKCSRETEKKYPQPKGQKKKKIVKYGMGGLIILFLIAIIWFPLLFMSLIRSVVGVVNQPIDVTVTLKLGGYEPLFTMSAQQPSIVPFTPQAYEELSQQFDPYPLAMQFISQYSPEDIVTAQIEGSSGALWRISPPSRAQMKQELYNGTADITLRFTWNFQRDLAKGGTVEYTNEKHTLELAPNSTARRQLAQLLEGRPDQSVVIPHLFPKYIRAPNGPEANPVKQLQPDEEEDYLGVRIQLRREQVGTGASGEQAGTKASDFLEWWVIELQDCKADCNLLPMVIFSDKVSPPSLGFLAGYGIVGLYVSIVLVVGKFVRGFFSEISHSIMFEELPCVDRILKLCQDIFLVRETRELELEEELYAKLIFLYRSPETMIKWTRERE

Clc1cccc(Cl)c1CSc1nnc(-c2cnccn2)s1 [Yoda1]
Yoda1 activated Ca2+ transients, amplitude normalized to ionomycin (Piezo1Rs): 0.82±0.14 | Yoda1 elicited calcium responses in red blood cells, TG 5xFAD versus age-matched WT [1]: significantly lower | secretion of anti-inflammatory IL-10 (hIPSC-derived microglia; LPS): increases the secretion | LPS induced secretion of pro-inflammatory IL-6 (hIPSC-derived microglia): prevented the LPS induced secretion | LPS induced secretion of pro-inflammatory IL-8 (hIPSC-derived microglia): prevented the LPS induced secretion | LPS induced secretion of pro-inflammatory MCP1 (hIPSC-derived microglia): prevented the LPS induced secretion
